Read-outs that look alike come from different tables or passages of the source.
How the values were obtained:
[1] = tested on: CHF patients; experiment: PK-PD meta-analysis (NONMEM, Emax model) of eight studies in CHF patients; assay type: in vivo, human; details: for EC50: Homo sapiens, effective concentration (composite of levosimendan, OR-1855, OR-1896)
Description: Data from eight studies (Studies 300102, 300103, 300105, 3001022, 3001024, 3001040, 3001058 (Group 1 and 2) and 3001058 (Group 4)) (335 CHF patients) were combined to generate the PK-PD dataset. Dose regimens included infusions of various doses (0.25-70.6 mg) and infusion durations (5 min-7 days), with or without an initial loading dose. In addition to plasma concentration-time data the PD variables utilized in the PK-PD evaluation were PCWP, CI, HR, SBP, and DBP.
Population PK models were built using a non-linear mixed-effect population modelling approach with the NONMEM software. The sequence of modelling was such that levosimendan PK was modelled first. Then the levosimendan portion of the full PK model was fixed, and individual PK parameters were carried forward in order to simultaneously model the metabolites PK. In the PK model it was assumed that levosimendan is fully metabolized to OR-1855, which is further metabolized to OR-1896. A gut compartment with first-order input from the levosimendan compartment and first-order output to the OR 1855 compartment was incorporated to account for the considerable delay between levosimendan elimination and metabolite appearance. This delay represents transport of levosimendan from plasma to gut and further transit to colon, metabolism of levosimendan to OR-1855 in the colon, and the subsequent absorption of OR-1855 from the colon. Elimination of the metabolites and inter-conversion between the two metabolites were modelled as first-order processes (See, FIG. 1). A mixture model allowing different inter-conversion rates for slow and rapid acetylators was beneficial in describing the data.
Covariates (fixed effects) such as demographic characteristics and patient attributes, for e.g. ejection fraction (EF), New York Heart Association classification (NYHA), serum bilirubin, and creatinine clearance etc. were tested individually in a stepwise method. The intra-subject effects or residual error was modelled as additive, proportional (constant coefficient of variation) or combination of the two for the PK model. The inter-subject effects were modelled as exponential error model.
The full PK models for levosimendan and its metabolites were fixed for the PD modelling. For each individual, plasma concentrations were calculated using the post-hoc PK parameter estimates for that individual. A maximal drug effect (Emax) model described by the following general equation was used to describe the relation between the estimated concentrations of drug and metabolites, and effect. E=Emax*Ceff/(EC50+Ceff) • Where: Ceff is the apparent effective concentration in the hypothetical effect compartment that may be a composite of drug and metabolite concentrations; EC50 is the effective concentration required to achieve 50% of Emax.
The equilibration rate constant (ke0) controls the time delay between the time courses of levosimendan concentration in the central compartment (Cp) and levosimendan concentration in the effect compartment (Clevo), and is expressed as dClevo/dT=ke0·(Cp−Clevo).
The contributions of the drug and the metabolites to the PD effects were modeled using a competitive agonist model that assumed same efficacy (Emax), but different potencies (EC50) for different compounds. A potency factor (RP) accounted for differences in potency and protein binding relative to levosimendan. […] Ceff=Clevo+RP1·COR-1855+RP2·COR-1896
Where RP1 and RP2 are the potencies of OR-1855 and OR-1896 relative to levosimendan, respectively.
The drug response was modelled as the absolute change from baseline and as the fractional change from baseline. The non-drug response was modelled either as a time dependent function or as an instantaneous response based on the following equations.
Where SSS is the maximum non-drug-related response. The exponent “a” represents the rate of onset of the non-drug response over time. […]

[2] = tested on: patients with New York Heart Association functional class II to III heart failure; experiment: Double-blind, placebo-controlled study of a 24-hour levosimendan infusion in heart failure patients; assay type: in vivo, human
Description: A double-blind, placebo-controlled, parallel group, single center study in patients with New York Heart Association functional class II to III heart failure was conducted. Patients were randomised in 1:1 ratio to receive either levosimendan or placebo. Study drug administration was initiated with a loading dose of 12 μg/kg of levosimendan or placebo delivered over 10 minutes. This was followed by a continuous infusion of 0.1 μg/kg/min for 50 minutes. If the dose was well tolerated the infusion rate was increased to 0.2 μg/kg/min for a further 23 hours. After the study drug was started, the hemodynamic assessments were repeated at 30 minutes, at two and six hours. The non-invasive hemodynamic assessments were repeated at 24-hours. Follow-up visits took place at 2, 3, 5, 7, 9 and 14 days from the beginning of the study. On these visits echocardiographic measurements were performed and blood pressure and heart rate were measured.
An Acuson Sequoia ultrasound system with 2.5-3.75 MHz probes was used for the Doppler echocardiographic measurements. Blood flow velocity curves were recorded at a sweep speed of 100 mm/s. Left ventricular ejection fraction was assessed by two-dimensional apical two- and four-chamber views with use of modified Simpson rule. Mitral flow velocity was assessed by pulsed wave Doppler from the apical four-chamber view by placing a 3-mm sample volume between the tip of the mitral leaflets in diastole. The following measurements were made over five consecutive cycles: maximal early and maximal late diastolic velocity and their ratio, duration of the late diastolic velocity wave, deceleration time and deceleration rate of early diastolic velocity. Peak velocities were defined as the highest point of the spectrum.
Blood samples (4 ml) for natriuretic peptide (NT-proANP, NT-proBNP) measurements were taken into pre-cooled EDTA tubes. Samples were taken at baseline (0-sample) and on the first study day 30 min, 2 h, 6h and 24 h after the start of the infusion and in the mornings of days 2, 3, 5, 7, 9 and 14 after the start of the study drug infusion.

[3] = tested on: subjects hospitalized with acute decompensation of heart failure; experiment: Phase 3, double-blind, placebo-controlled study in acute decompensation of heart failure (Example 5); assay type: in vivo, human
Description: This was a Phase 3, double-blind, placebo-controlled, parallel-group study in subjects hospitalized with a primary or secondary admitting diagnosis of acute decompensation of heart failure. The treatment period was up to 24 hours for each subject with at least 90 days follow-up after the start of the study drug infusion. All baseline medications (including use of beta-blockers and other medications) were recorded for each patient. The study evaluated hospitalized subjects (n=600) with a primary or secondary admitting diagnosis of worsening heart failure, with symptoms at rest despite treatment with IV diuretic therapy. […] Infusion rates for background therapy of continuous IV diuretics, inotropes and vasodilators had to have been unchanged for at least two hours prior to the baseline evaluation. Left ventricular ejection fraction (EF) was required to be less than or equal to 35% as assessed within the previous 12 months. Subjects were randomized to either levosimendan (n=299) or placebo (n=301) in addition to standard-of-care. Levosimendan treatment was initiated with a total loading dose of […] administered over 10 minutes (6 mg/kg for subjects on concomitant IV vasodilators or inotropes at the start of the study drug infusion) followed by a continuous infusion of […] for the following 50 minutes. If the dose was well tolerated, the infusion rate was increased to 0.2 mg/kg/min for a further 23 hours. If the higher dose was not well tolerated it was reduced to […] and then further to 0.05 mg/kg/min if required. On completion of 24 hours the infusion is turned off abruptly.
The primary objective of this study was to compare the efficacy between levosimendan and placebo treatments using the clinical composite endpoint (CCE) incorporating a subject reported PGA at 6 hours, 24 hours and Day 5, combined with clinical criteria for worsening heart failure through 5 days after the start of study drug infusion. In contrast to REVIVE I, the was CCE included a PGA at 6 hours as part of the primary endpoint and diuretics at any time during the 5 day assessment period were included as rescue therapy.
Episodes of worsening heart failure treated with a rescue therapy were collected during the initial hospitalization until Day 5 or discharge whichever was later. Safety parameters such as adverse events (AEs), HR, […] (BP), routine laboratory tests, and ECG were monitored frequently up to 31 days, with hospitalization and mortality extended to 90 days after start of study drug infusion. Survival was monitored for all randomized subjects from Day 90 until the last subject underwent the final scheduled visit.

[4] = Unbound plasma fraction; assay type: in vitro ADME

C[C@@H]1CC(=O)NN=C1c1ccc(NN=C(C#N)C#N)cc1 [levosimendan, (−)-enantiomer of [[4-(1,4,5,6-tetrahydro-4-methyl-6-oxo-3-pyridazinyl)phenyl]hydrazono]propanedinitrile]
EC50 ([1]; read-out: Post-hoc Mean EC50, CI): 0.09 µg/mL | EC50 ([1]; read-out: Post-hoc Mean EC50, DBP): 0.154 µg/mL | EC50 ([1]; read-out: Post-hoc Mean EC50, HR): 0.198 µg/mL | EC50 ([1]; read-out: Post-hoc Mean EC50, PCWP): 0.0511 µg/mL | EC50 ([1]; read-out: Post-hoc Mean EC50, SBP): 0.047 µg/mL | Post-hoc Mean Emax, CI ([1]; baseline mean 2.21): 1.15 L/m^2/min | Post-hoc Mean Emax, PCWP ([1]; baseline mean 20.8): −7.8 mmHg | Post-hoc Mean Emax, DBP ([1]; baseline mean 71): −13.3 mmHg | Post-hoc Mean Emax, HR ([1]; baseline mean 76): 18 Bpm | Post-hoc Mean Emax, SBP ([1]; baseline mean 118): −7.1 mmHg | Maintenance of beneficial hemodynamic and neurohormonal effects ([2]; after levosimendan administration): up to two weeks | Time of lowest echocardiographically estimated PCWP ([2]; after starting the infusion): 2 days | Day of lowest plasma NT-proANP level ([2]; human, in vivo): 3 days | Day of lowest plasma NT-proBNP level ([2]; human, in vivo): 2 days | Duration of treatment effect on NT-proANP, linear model ([2]; human, in vivo): 16 days | Duration of treatment effect on NT-proBNP, linear model ([2]; human, in vivo): 12 days | Time of highest CO value estimated by echocardiography ([2]; human, in vivo): at the end of the 24-hour infusion | Proportion of patients reporting moderate to marked improvement in dyspnea ([3]; at 6 hours (91/299), placebo/SOC 25.2%): 30.4% | Improvement in self assessment (PGA) compared to placebo/SOC ([3]; beta-blocked patients, over the first 5 days, p=0.001): significantly greater improvement | Improvement in self assessment (dyspnea) compared to placebo/SOC ([3]; over the first 5 days, p=0.018): significantly greater improvement | Proportion of patients reporting moderate to marked improvement in PGA ([3]; overall population, at 6 hours (85/299), placebo/SOC 23.9%): 28.4% | Improvement in PGA compared to placebo/SOC ([3]; overall population, over 5 days, p=0.002): significantly greater improvement | Difference in PGA improvement compared to placebo/SOC ([3]; patients not receiving beta-blocker therapy (n=96)): not statistically significant | Difference in dyspnea improvement between treatment groups ([3]; patients not receiving beta-blocker therapy, first 5 days): not statistically significant | Proportion reporting moderate to marked improvements in dyspnea compared to placebo/SOC ([3]; patients receiving a beta-blocker at baseline, at 6 hours): greater proportion | Proportion of patients reporting moderate to marked improvements in PGA ([3]; patients receiving a beta-blocker at baseline, at 6 hours, placebo/SOC 34%): 44% | Improvement in dyspnea compared to placebo/SOC ([3]; patients receiving beta-blockers, over the first 5 days, p=0.0016): significantly greater improvement | Other secondary endpoints, except 90-day mortality ([3]; versus placebo): trended in favor of levosimendan but did not reach statistical significance | Unbound plasma fraction [4]: 0.025

From patent US20080070917A1, “METHODS FOR ADMINISTERING LEVOSIMENDAN” (priority 2005, published 2008)
